Measured values taken from PubChem BioAssay (NCI).
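48-hour exposure; five concentrations; linearly interpolated endpoints. TGI is the concentration that stops growth completely.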

Tests used:
Experiment in all cases: NCI-60 cell line screen, 48 h
786-0 renal = tested on: 786-0 renal
A498 renal = tested on: A498 renal
A549 NSCLC = tested on: A549 NSCLC
ACHN renal = tested on: ACHN renal
CAKI-1 renal = tested on: CAKI-1 renal
CCRF-CEM leukemia = tested on: CCRF-CEM leukemia
COLO 205 colon = tested on: COLO 205 colon
DLD-1 colon = tested on: DLD-1 colon
DMS 114 small cell lung = tested on: DMS 114 small cell lung
EKVX NSCLC = tested on: EKVX NSCLC
HCC-2998 colon = tested on: HCC-2998 colon
HCT-116 colon = tested on: HCT-116 colon
HCT-15 colon = tested on: HCT-15 colon
HOP-18 NSCLC = tested on: HOP-18 NSCLC
HOP-62 NSCLC = tested on: HOP-62 NSCLC
HT29 colon = tested on: HT29 colon
IGROV1 ovarian = tested on: IGROV1 ovarian
K-562 leukemia = tested on: K-562 leukemia
KM12 colon = tested on: KM12 colon
KM20L2 colon = tested on: KM20L2 colon
LXFL 529 NSCLC = tested on: LXFL 529 NSCLC
M14 melanoma = tested on: M14 melanoma
M19-MEL melanoma = tested on: M19-MEL melanoma
MALME-3M melanoma = tested on: MALME-3M melanoma
MOLT-4 leukemia = tested on: MOLT-4 leukemia
NCI-H23 lung = tested on: NCI-H23 lung
NCI-H460 lung = tested on: NCI-H460 lung
NCI-H522 lung = tested on: NCI-H522 lung
OVCAR-3 ovarian = tested on: OVCAR-3 ovarian
OVCAR-4 ovarian = tested on: OVCAR-4 ovarian
OVCAR-5 ovarian = tested on: OVCAR-5 ovarian
OVCAR-8 ovarian = tested on: OVCAR-8 ovarian
RPMI-8226 leukemia = tested on: RPMI-8226 leukemia
SF-268 CNS = tested on: SF-268 CNS
SF-295 CNS = tested on: SF-295 CNS
SF-539 CNS = tested on: SF-539 CNS
SK-MEL-2 melanoma = tested on: SK-MEL-2 melanoma
SK-MEL-28 melanoma = tested on: SK-MEL-28 melanoma
SK-MEL-5 melanoma = tested on: SK-MEL-5 melanoma
SK-OV-3 ovarian = tested on: SK-OV-3 ovarian
SN12C renal = tested on: SN12C renal
SNB-19 CNS = tested on: SNB-19 CNS
SNB-75 CNS = tested on: SNB-75 CNS
SW-620 colon = tested on: SW-620 colon
TK-10 renal = tested on: TK-10 renal
U251 CNS = tested on: U251 CNS
UACC-257 melanoma = tested on: UACC-257 melanoma
UACC-62 melanoma = tested on: UACC-62 melanoma
UO-31 renal = tested on: UO-31 renal
XF 498 CNS = tested on: XF 498 CNS
DMS 273 small cell lung = tested on: DMS 273 small cell lung
HL-60(TB) leukemia = tested on: HL-60(TB) leukemia
HOP-92 NSCLC = tested on: HOP-92 NSCLC
LOX IMVI melanoma = tested on: LOX IMVI melanoma
NCI-H226 lung = tested on: NCI-H226 lung
RXF 393 renal = tested on: RXF 393 renal
RXF-631 renal = tested on: RXF-631 renal
SNB-78 CNS = tested on: SNB-78 CNS
SR leukemia = tested on: SR leukemia

Measured: TGI

COc1cc2cnc3c4cc(OC(C)C)c(OC)cc4ccc3c2cc1OC
> 100 µM: 786-0 renal | A498 renal | A549 NSCLC | ACHN renal | CAKI-1 renal | CCRF-CEM leukemia | COLO 205 colon | DLD-1 colon | DMS 114 small cell lung | EKVX NSCLC | HCC-2998 colon | HCT-116 colon | HCT-15 colon | HOP-18 NSCLC | HOP-62 NSCLC | HT29 colon | IGROV1 ovarian | K-562 leukemia | KM12 colon | KM20L2 colon | LXFL 529 NSCLC | M14 melanoma | M19-MEL melanoma | MALME-3M melanoma | MOLT-4 leukemia | NCI-H23 lung | NCI-H460 lung | NCI-H522 lung | OVCAR-3 ovarian | OVCAR-4 ovarian | OVCAR-5 ovarian | OVCAR-8 ovarian | RPMI-8226 leukemia | SF-268 CNS | SF-295 CNS | SF-539 CNS | SK-MEL-2 melanoma | SK-MEL-28 melanoma | SK-MEL-5 melanoma | SK-OV-3 ovarian | SN12C renal | SNB-19 CNS | SNB-75 CNS | SW-620 colon | TK-10 renal | U251 CNS | UACC-257 melanoma | UACC-62 melanoma | UO-31 renal | XF 498 CNS

NC(CCc1nc(-c2ccc(Cl)cc2)cs1)C(=O)O (stereo not given)
> 100 µM: 786-0 renal | A498 renal | A549 NSCLC | ACHN renal | CAKI-1 renal | CCRF-CEM leukemia | COLO 205 colon | DLD-1 colon | DMS 273 small cell lung | EKVX NSCLC | HCC-2998 colon | HCT-116 colon | HCT-15 colon | HL-60(TB) leukemia | HOP-18 NSCLC | HOP-62 NSCLC | HOP-92 NSCLC | HT29 colon | IGROV1 ovarian | KM12 colon | KM20L2 colon | LOX IMVI melanoma | LXFL 529 NSCLC | M14 melanoma | M19-MEL melanoma | MALME-3M melanoma | MOLT-4 leukemia | NCI-H226 lung | NCI-H23 lung | NCI-H460 lung | NCI-H522 lung | OVCAR-3 ovarian | OVCAR-4 ovarian | OVCAR-5 ovarian | OVCAR-8 ovarian | RPMI-8226 leukemia | RXF 393 renal | RXF-631 renal | SF-268 CNS | SF-295 CNS | SK-MEL-2 melanoma | SK-MEL-28 melanoma | SK-MEL-5 melanoma | SK-OV-3 ovarian | SN12C renal | SNB-19 CNS | SNB-75 CNS | SNB-78 CNS | SR leukemia | SW-620 colon | TK-10 renal | U251 CNS | UACC-257 melanoma | UACC-62 melanoma | UO-31 renal
